Measurements taken from US20230365563A1, “QUINAZOLINE COMPOUND AND APPLICATION THEREOF” (SHANGHAI PHARMACEUTICALS HOLDING CO., LTD., priority 2020, published 2023).
pIC50: −log10 of the molar value. Counter-ions that a name gives are not always drawn.

These molecules were tested against T1, KRAS-G12D and SOS1 (Homo sapiens, UniProt P01116, G12D) (assay: Inhibition of KRAS-G12D/SOS1 binding (Cisbio binding kit, 665/615 ratio), Effect Embodiment A). Conditions: read-out: GTP-KRAS-G12D:SOS1 IC50.
T1 construct: purchased
T1 sequence (P01116 1-188 isoform P01116-2 G12D): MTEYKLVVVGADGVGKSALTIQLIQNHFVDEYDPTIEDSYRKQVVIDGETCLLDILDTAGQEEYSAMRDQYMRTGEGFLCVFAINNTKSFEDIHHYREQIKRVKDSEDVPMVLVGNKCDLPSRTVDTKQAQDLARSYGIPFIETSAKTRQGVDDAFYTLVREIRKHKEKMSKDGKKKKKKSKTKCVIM
Method in brief: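 Test compounds were serially diluted 3-fold from the storage solution over 11 points and dispensed in duplicate wells at 1% final DMSO.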
Work on `C#Cc1cccc2cc(O)cc(-c3c(F)cc4c(N5CC6CCC(C5)N6)nc(OCCCN5C6CCC5COC6)nc4c3F)c12` (single isomer, unassigned) [Compound 273b, 4-((7R or 7S)-2-(3-(3-oxa-8-azabicyclo[3.2.1]octan-8-yl)propoxy)-4-((1R,5S)-3,8-diazabicyclo[3.2.1]octan-3-yl)-6,8-difluoroquinazolin-7-yl)-5-ethynylnaphthalen-2-ol diformate] yielded a pIC50 of 5.73. `N#Cc1cccc2cc(O)cc(-c3c(F)cc4c(N5CC6CCC(C5)N6)nc(OCCCN5C6CCC5COC6)nc4c3F)c12` (single isomer, unassigned) [Compound 278b, 8-((7R or 7S)-2-(3-(3-oxa-8-azabicyclo[3.2.1]octan-8-yl)propoxy)-4-((1R,5S)-3,8-diazabicyclo[3.2.1]octan-3-yl)-6,8-difluoroquinazolin-7-yl)-6-hydroxy-1-naphthonitrile diformate] was tested, and the pIC50 was 5.61. Work on `C#Cc1c(F)ccc2cccc(-c3c(F)cc4c(N5CC6CCC(C5)N6)nc(OC[C@@]56CCCN5C[C@H](F)C6)nc4c3F)c12` (single isomer, unassigned) [Compound 279b, (R or S)-4-((1R,5S)-3,8-diazacyclo[3.2.1]octyl-3-yl)-7-(8-ethynyl-7-fluoronaphthalen-1-yl)-6,8-difluoro-2-((2R,7aS)-2-fluorotetrahydro-1H-pyrrolidin-7a(5H)-yl)methoxy)quinazoline formate] yielded a pIC50 of 5.86. In the case of `CCc1c(F)ccc2cccc(-c3c(F)cc4c(N5CC6CCC(C5)N6)nc(OC[C@@]56CCCN5C[C@H](F)C6)nc4c3F)c12` (single isomer, unassigned) [Compound 280b, 4-((1R,5S)-3,8-diazacyclo[3.2.1]octan-3-yl)-7-((R or S)-8-ethyl-7-fluoronaphthalen-1-yl)-6,8-difluoro-2-((2R,7aS)-2-fluorotetrahydro-1H-pyrrolidin-7a(5H)-yl)methoxy)quinazoline dihydrochloride], the pIC50 was 6.51. Molecule `CCc1cccc2cccc(-c3c(F)cc4c(N5CC6CCC(C5)N6)nc(OC[C@@]56CCCN5C[C@H](F)C6)nc4c3F)c12` (single isomer, unassigned) [Compound 281b, (R or S)-4-((1R,5S)-3,8-diazacyclo[3.2.1]octan-3-yl)-7-(8-ethylnaphthalen-1-yl)-6,8-difluoro-2-((2R,7aS)-2-fluorotetrahydro-1H-pyrrolin-7a(5H)-yl)methoxy)quinazoline dihydrochloride] has a pIC50 of 6.35. Molecule `CCc1cccc2cc(O)cc(-c3c(F)cc4c(N5CC6CCC(C5)N6)nc(OCCCN5CCOC[C@H]5C)nc4c3F)c12` (single isomer, unassigned) [Compound 282b, (R or S)-4-(4-((1R,5S)-3,8-diazacyclo[3.2.1]octan-3-yl)-6,8-difluoro-2-(3-((R)-3-methylmorpholinyl)propoxy)quinazolin-7-yl)-5-ethylnaphthalen-2-ol dihydrochloride] has a pIC50 of 5.30. Molecule `CCc1cccc2cc(O)cc(-c3c(F)cc4c(N5CC6CCC(C5)N6)nc(OCCCN5C[C@@H](C)O[C@@H](C)C5)nc4c3F)c12` (single isomer, unassigned) [Compound 283b, (R or S)-4-(4-((1R,5S)-3,8-diazacyclo[3.2.1]octan-3-yl)-2-(3-((2S,6R)-2,6-dimethylmorpholinyl)propoxy)-6,8-difluoroquinazolin-7-yl)-5-ethylnaphthalen-2-ol dihydrochloride] has a pIC50 of 5.04. Work on `CCc1cccc2cc(O)cc(-c3c(F)cc4c(N5CC6CCC(C5)N6)nc(OC[C@H](C)CN5C6CCC5COC6)nc4c3F)c12` (single isomer, unassigned) [Compound 284b, (4R or 4S)-4-(2-((2R)-3-(3-oxa-8-azabicyclo[3.2.1]octan-8-yl)-2-methylpropoxy)-4-((1R,5S)-3,8-diazabicyclo[3.2.1]octan-3-yl)-6,8-difluoroquinazolin-7-yl)-5-ethylnaphthalen-2-o1 dihydrochloride] yielded a pIC50 of 5.70. With `CCc1cccc2cc(O)cc(-c3c(F)cc4c(N5CC6CCC(C5)N6)nc(OC[C@@]56CCCN5C[C@H](F)C6)nc4c3F)c12` (single isomer, unassigned) [Compound 285b, (R or S)-4-(4-((1R,5S)-3,8-diazacyclo[3.2.1]octan-3-yl)-6,8-difluoro-2-((2R,7aS)-2-fluorotetrahydro-1H-pyrrolidin-7a(5H-yl)methoxy)quinazolin-7-yl)-5-ethylnaphthalen-2-ol dihydrochloride] the pIC50 was 5.84. Work on `CN(C)C1CN(c2nc(C3CCNCC3)c3cc(Cl)c(-c4cc(O)cc5ccccc45)c(F)c3n2)C1` [Compound 20a, (R or S)-4-(6-chloro-2-(3-(dimethylamino)azetidin-1l-yl)-8-fluoro-4-(piperidin-4-yl)quninazolin-7-yl)naphthalen-2-ol] yielded a pIC50 of 5.32. With `CN(C)CCCOc1nc2c(c(N3CCNCC3)n1)CCN(c1cc(O)cc3ccccc13)C2` [Compound 73, 4-(2-(3-(Dimethylamino)propoxy)-4-(piperazin-1-yl)-5,8-dihydropyrido[3,4-d]pyrimidin-7(6H)-yl)naphthalen-2-ol] the pIC50 was 4.80. `CN(C)C1CN(c2nc(N3CC(C(=N)N)C3)c3cc(Cl)c(-c4cc(O)cc5ccccc45)c(F)c3n2)C1` [Compound 77, (S)-1-(6-chloro-2-(3-(dimethylamino)azetidin-1-yl)-8-fluoro-7-(3-hydroxynaphthalen-1-yl)quinazolin-4-yl)azetidine-3-carboximidamide] gave a pIC50 of 5.99. In the case of `Oc1cc(-c2ncc3c(N4C[C@H]5CC[C@@H](C4)N5)nc(Oc4ccncc4)nc3c2F)c2ccccc2c1` [Compound 130, 4-(4-((1R,5S)-3,8-diazabicyclo[3.2.1]octan-3-yl)-8-fluoro-2-(pyridinyl-4-oxy)pyridyl[4,3-d]pyrimidin-7-yl)naphthalen-2-ol hydrochloride], the pIC50 was 6.07. `Cn1ccnc1COc1nc(N2C[C@H]3CC[C@@H](C2)N3)c2cnc(-c3cc(O)cc4ccccc34)c(F)c2n1` [Compound 132, 4-(4-((1R,5S)-3,8-diazabicyclo[3.2.1]octan-3-yl)-8-fluoro-2-((1-methyl-1H-imidazol-2-yl)methoxy)pyridinyl[4,3-d]pyrimidin-7-yl)naphthalen-2-ol trifluoroacetate] was tested, and the pIC50 was 6.12. Work on `CN1CC(F)(F)C[C@H]1COc1nc(N2CC3CCC(C2)N3)c2cnc(-c3cc(O)cc4ccccc34)c(F)c2n1` [Compound 135, 4-(4-((1R,5S)-3,8-diazabicyclo[3.2.1]octan-3-yl)-2-((S)-4,4-difluoro-1-methylpyrrolidin-2-yl)methoxy)-8-fluoropyridinyl[4,3-d]pyrimidin-7-yl)naphthalen-2-ol formate] yielded a pIC50 of 6.88. With `Oc1cc(-c2ncc3c(N4C[C@H]5CC[C@@H](C4)N5)nc(OCCc4ccccn4)nc3c2F)c2ccccc2c1` [Compound 138, 4-(4-((1R,5S)-3,8-diazabicyclo[3.2.1]octan-3-yl)-8-fluoro-2-(2-(pyridin-2-yl)ethoxy)pyridyl[4,3-d]pyrimidin-7-yl)naphthalen-2-ol trifluoroacetate] the pIC50 was 6.97. Molecule `CN1C[C@H]2C[C@H]2[C@H]1COc1nc(N2CC3CCC(C2)N3)c2cnc(-c3cc(O)cc4ccccc34)c(F)c2n1` [Compound 141, 4-(4-((1R,5S)-3,8-diazabicyclo[3.2.1]octan-3-yl)-8-fluoro-2-((1R,2S,5R)-3-methyl-3-azabicyclo[3.1.0]hexan-2-yl)methoxy)pyridin[4,3-d]pyrimidin-7-yl)naphthalen-2-ol dihydrochloride] has a pIC50 of 7.06.
